This is an account of results in patent US20230087865A1, “PHARMACEUTICAL COMPOSITION FOR ORAL ADMINISTRATION” (HK INNO. N CORPORATION, priority 2020, published 2023).

Where a name gives a salt, the structure may show the parent alone.

The series can be described thus: Evaluation of compatibility between tegoprazan and clopidogrel sulfate (2 weeks, HDPE bottle). Format: physicochemical. The following applies: for content, component in mixture: mixture of tegoprazan and clopidogrel sulfate. As to the method: Example 1. Evaluation of Compatibility Between Tegoprazan and Clopidogrel Sulfate
According to Table 1 above, in order to examine the effect of each of tegoprazan and clopidogrel hydrogen sulfate, compatibility therebetween was evaluated under storage conditions according to the ICH guideline recommendations and drug safety test regulations.
It was shown that, when the two components came into direct contact with each other under each storage condition, the contents of the two components decreased.

Setting [1] is: 2 weeks, Accelerated conditions (40° C./RH 75 ± 5%).
The mark [2] stands for this setting: 2 weeks, Stressed conditions (60° C./RH 75 ± 5%).

`COC(=O)[C@H](c1ccccc1Cl)N1CCc2sccc2C1` [Clopidogrel sulfate, methyl (+)-(S)-α-(2-chlorophenyl)-6,7-dihydrothieno[3,2-c]pyridine-5(4H)-acetate]: the “content, component alone” value runs as follows: under setting [1], 101.1%; under setting [2], 98.3%; (Initial (room temperature)) 100.2%. The “content, component in mixture” value under setting [1] was found to be 78.9%; the “content, component in mixture” value under setting [2] is 49.0%; the “content, component in mixture” value (Initial (room temperature)) was found to be 100.3%.
Consider `Cc1nc2cc(C(=O)N(C)C)cc(O[C@H]3CCOc4cc(F)cc(F)c43)c2[nH]1` [Tegoprazan, (S)-4-((5,7-difluorochroman-4-yl)oxy)-N,N,2-trimethyl-1H-benzo[d]imidazole-6-carboxamide], for which the “content, component alone” value under setting [1] is recorded as 100.3%; the “content, component alone” value under setting [2] amounted to 99.1%; the “content, component alone” value (Initial (room temperature)) stood at 99.8%. Moreover, the “content, component in mixture” value by setting is: under setting [1], 92.0%; under setting [2], 10.5%; (Initial (room temperature)) 99.7%.
